Assay results reported in US4069035A, “1-(2-Carboxyaryl)-3-aryl-1,2,4-triazoles and use as herbicides” (E. I. Du Pont de Nemours and Company, priority 1976, dated 1978).

Experiments:
[1] = pKa by titration against aqueous NaOH (half neutralization point), buffer range; type: physicochemical; conditions: for pKa: dimethylsulfoxide/water, 0.09995N NaOH, half neutralization point; for Buffer Range: range 1 acid:10 salt to 10 acid:1 salt
Method: The selected acids listed in Table IX (65-84 mg samples, weighed accurately) were respectively dissolved in a mixture of dimethylsulfoxide (25 ml) and water (10-25 ml) and titrated against 0.09995N aqueous sodium hydroxide using an automatic titrimeter (Metrohm Potentiograph Model E 336). According to the general theory of buffer solutions (A. I. Vogel, "A Textbook of Quantitative Inorganic Analysis, Theory and Practice," Longmans, Green, London (1948)), the following relationship exists in a dilute solution (0.05-0.2M) of a weak acid to which small additions of acid or base are made
pH = pKa + log [Salt]/[Acid]
The pH of the solution is mainly determined by the pKa of the acid, and in general the buffering capacity (ability to withstand pH change upon addition of acid or base) is maintained within the range 1 acid:10 salt to 10 acid:1 salt, a hundred-fold variation of concentration, or a change of two pH units. The buffer ranges of each of the acids is shown in the third column of Table IX. The acids are useful as buffers in weakly acidic solutions.

barnyard grass [2] = test: postemergence plant growth test; type: in vivo; conditions: 2k/ha
Text: (§1) The imidazole and triazole compounds of the invention are useful as plant growth modifiers when applied to plants. The compounds are applied to the immediate area where the plant is developing and growing, including preemergence and postemergence application.

bush beans = test: postemergence plant growth test; type: in vivo; conditions: 2k/ha
Text: as §1

cassia [3] = test: postemergence plant growth test; type: in vivo; conditions: 2k/ha
Text: as §1

cocklebur [4] = test: postemergence plant growth test; type: in vivo; conditions: 2k/ha
Text: as §1

corn [5] = test: postemergence plant growth test; type: in vivo; conditions: 2k/ha
Text: as §1

cotton = test: postemergence plant growth test; type: in vivo; conditions: 2k/ha
Text: as §1

rice [6] = test: postemergence plant growth test; type: in vivo; conditions: 2k/ha
Text: as §1

sorghum [7] = test: postemergence plant growth test; type: in vivo; conditions: 2k/ha
Text: as §1

soybeans [8] = test: postemergence plant growth test; type: in vivo; conditions: 2k/ha
Text: as §1

cassia [9] = test: preemergence plant growth test; type: in vivo; conditions: 2k/ha
Text: as §1

cocklebur [10] = test: preemergence plant growth test; type: in vivo; conditions: 2k/ha
Text: as §1

morning glory [11] = test: preemergence plant growth test; type: in vivo; conditions: 2k/ha
Text: as §1

nutsedge [12] = test: preemergence plant growth test; type: in vivo; conditions: 2k/ha
Text: as §1

rice [13] = test: preemergence plant growth test; type: in vivo; conditions: 2k/ha
Text: as §1

sorghum [14] = test: preemergence plant growth test; type: in vivo; conditions: 2k/ha
Text: as §1

morning glory [15] = test: postemergence plant growth test; type: in vivo; conditions: 2k/ha
Text: as §1

nutsedge [16] = test: postemergence plant growth test; type: in vivo; conditions: 2k/ha
Text: as §1

corn [17] = test: preemergence plant growth test; type: in vivo; conditions: 2k/ha
Text: as §1

crabgrass = test: preemergence plant growth test; type: in vivo; conditions: 2k/ha
Text: as §1

soybeans [18] = test: preemergence plant growth test; type: in vivo; conditions: 2k/ha; for epinastic response: soybeans
Text: as §1

wheat [19] = test: preemergence plant growth test; type: in vivo; conditions: 2k/ha
Text: as §1

wild oats [20] = test: preemergence plant growth test; type: in vivo; conditions: 2k/ha
Text: as §1

wheat [21] = test: postemergence plant growth test; type: in vivo; conditions: 2k/ha
Text: as §1

wild oats [22] = test: postemergence plant growth test; type: in vivo; conditions: 2k/ha
Text: as §1

barnyard grass [23] = test: preemergence plant growth test; type: in vivo; conditions: 2k/ha
Text: as §1

| SMILES | pKa [1] | Buffer Range [1] | epinastic response (bush beans) | epinastic response (cassia [3]) | epinastic response (cocklebur [4]) | epinastic response (corn [5]) | epinastic response (cotton) | epinastic response (rice [6]) | epinastic response (sorghum [7]) | axillary stimulation (soybeans [8]) | epinastic response (soybeans [8]) | epinastic response (cassia [9]) | epinastic response (nutsedge [12]) | epinastic response (rice [13]) | epinastic response (sorghum [14]) | epinastic response (morning glory [15]) | epinastic response (corn [17]) | epinastic response (soybeans [18]) | epinastic response (wheat [19]) | epinastic response (wild oats [20]) | further results |
| --- | --- | --- | --- | --- | --- | --- | --- | --- | --- | --- | --- | --- | --- | --- | --- | --- | --- | --- | --- | --- | --- |
| COc1ccc(-c2cn(-c3ccccc3C(=O)O)cn2)cc1 [Example 3, 1-(2-carboxyphenyl)-4-(4-methoxyphenyl)imidazole] | 5.08 | 4.1 - 6.1 pH Units | epinastic response | epinastic response | epinastic response | epinastic response | epinastic response | epinastic response | epinastic response | axillary stimulation | epinastic response |  |  |  |  |  |  |  |  |  | axillary stimulation (barnyard grass [2]): axillary stimulation; axillary stimulation (cassia [3]): axillary stimulation |
| Cc1ccc(-c2ncn(-c3ccccc3C(=O)O)n2)cc1 [Example 9, 1-(2-carboxyphenyl)-3-(4-methylphenyl)-1,2,4-triazole] | 4.81 | 3.8 - 5.8 pH Units |  | epinastic response | epinastic response |  |  | epinastic response | epinastic response |  |  | epinastic response | epinastic response | epinastic response | epinastic response | epinastic response |  |  |  |  | epinastic response (cocklebur [10]): epinastic response; epinastic response (morning glory [11]): epinastic response; growth (bush beans): retarded; epinastic response (nutsedge [16]): epinastic response |
| O=C(O)c1ccccc1-n1cnc(-c2ccc(Cl)cc2)c1 [Example 2, 1-(2-carboxyphenyl)-4-(4-chlorophenyl)imidazole] |  |  | epinastic response |  |  | epinastic response | epinastic response |  | epinastic response | strong axillary stimulation |  |  |  | very strong epinastic responses | very strong response | epinastic response | very strong epinastic responses | very strong epinastic responses | very strong response | very strong response | epinastic response (crabgrass): very strong epinastic responses |
| O=C(O)c1ccccc1-n1cnc(-c2ccccc2)n1 [Example 5, 1-(2-carboxyphenyl)-3-phenyl-1,2,4-triazole] | 5.91 | 4.9 - 6.9 pH Units |  |  |  |  |  | epinastic response | epinastic response |  | epinastic response |  |  |  |  |  |  |  |  |  | growth (barnyard grass [2]): retarded; epinastic response (nutsedge [16]): epinastic response; growth (wheat [21]): retarded; growth (wild oats [22]): retarded |
| COc1ccc(-c2ncn(-c3ccccc3C(=O)O)n2)cc1 [Example 8, 1-(2-carboxyphenyl)-3-(4-methoxyphenyl)-1,2,4-triazole] | 4.73 | 3.7 - 5.7 pH Units |  |  |  |  |  |  |  |  |  | epinastic responses | epinastic responses | epinastic responses | epinastic responses |  | epinastic responses |  | epinastic responses | epinastic responses |  |
| O=C(O)c1ccccc1-n1cnc(-c2ccc(Cl)c(Cl)c2)n1 [Example 7, 1-(2-carboxyphenyl)-3-(3,4-dichlorophenyl)-,2,4-triazole] | 6.19 | 5.2 - 7.2 pH Units |  |  |  |  |  |  |  |  |  | epinastic responses | epinastic responses | epinastic responses | epinastic responses |  | epinastic responses |  | epinastic responses | epinastic responses |  |
| Cc1ccc(-c2cn(-c3ccccc3C(=O)O)cn2)cc1 [Example 4, 1-(2-carboxyphenyl)-4-(4-methylphenyl)imidazole] | 5.59 | 4.6 - 6.6 pH Units | epinastic response |  |  | epinastic response | epinastic response |  | epinastic response | strong axillary stimulation |  |  |  | very strong epinastic responses | moderate to strong response | epinastic response | very strong epinastic responses | very strong epinastic responses | moderate to strong response | moderate to strong response | epinastic response (crabgrass): very strong epinastic responses |
| O=C(O)c1ccccc1-n1cnc(-c2ccc(Cl)cc2)n1 [Example 6, 1-(2-carboxyphenyl)-3-(4-chlorophenyl)-1,2,4-triazole] | 5.48 | 4.5 - 6.5 pH Units |  |  |  |  |  |  |  |  |  | epinastic responses | epinastic responses | epinastic responses | epinastic responses |  | epinastic responses |  | epinastic responses | epinastic responses |  |
| O=C(O)c1ccccc1-n1cnc(-c2ccccc2)c1 [Example 1, 1-(2-carboxyphenyl)-4-phenylimidazole] | 4.91 | 3.9 - 5.9 pH Units | epinastic response | epinastic response | epinastic response | epinastic response |  | epinastic response | epinastic response |  | epinastic response | very strong hormonal effect (epinastic response) |  | very strong hormonal effect (epinastic response) |  | epinastic response | very strong hormonal effect (epinastic response) | very strong hormonal effect (epinastic response) | very strong hormonal effect (epinastic response) |  | epinastic response (barnyard grass [23]): very strong hormonal effect (epinastic response); epinastic response (cocklebur [10]): very strong hormonal effect (epinastic response); emergence (crabgrass): inhibited; epinastic response (morning glory [11]): very strong hormonal effect (epinastic response); emergence (nutsedge [12]): inhibited; emergence (soybeans [18]; soybean): inhibited; emergence (wild oats [20]): inhibited; growth (nutsedge [16]): retarded; epinastic response (wheat [21]): epinastic response; epinastic response (wild oats [22]): epinastic response |
